Source: ChEMBL document CHEMBL1147373, “Patagonicol: a diterpenoid from the Chinese soft coral Alcyonium patagonicum” (J Nat Prod, 1993)
The source made the active and inactive calls. The calls are words filed in the database; no cut-off is given here.

Assays:
[1] = tested on: Candida albicans; assay: Antifungal activity against Candida albicans; type: functional, organism-based
[2] = tested on: P388; assay: Cytotoxicity against mouse P388 cells; type: functional, cell-based

Q: With `C=C1CC[C@H](C(C)C)[C@@H]2[C@H]1[C@H]1C[C@](C)(O)[C@@H](OCC)CC[C@@](C)(O)[C@@H]2O1` as the compound, how does the Activity [1] read?
A: inactive

Q: And the Activity [2]?
A: inactive
